Reference: US20240174690A1, “ANNULATED 2-AMINO-3-CYANO THIOPHENES AND DERIVATIVES FOR THE TREATMENT OF CANCER” (BOEHRINGER INGELHEIM INTERNATIONAL GMBH, priority 2021, published 2024)
pIC50: −log10 of the molar value. Each block holds one molecule with its values, some of them ahead of it.

What was measured:
KRAS (G12C)::SOS1 = KRAS (G12C)::SOS1 (Homo sapiens (Human), UniProt P01116, C118S/C51S/C80L/G12C); assay: KRAS::SOS1 AlphaScreen binding assay, KRAS G12C
Excerpt: (§1) This assay can be used to examine the potency with which compounds according to the invention binding to (mutated) KRAS inhibit the protein-protein interaction between SOS1 and (mutated) KRAS e.g., KRAS WT, KRAS G12C, KRAS G12D, KRAS G12V, KRAS G13D. […] Low IC50 values in this assay setting are indicative of strong inhibition of protein-protein interaction between SOS1 and KRAS:
(§2) These assays measure the inhibitory effect of compounds on KRAS mutant protein-protein interactions using the Alpha Screen technology by Perkin Elmer.
(§3) The following (mutant) enzyme forms of KRAS and interacting proteins are used in these assays at the given concentrations: • KRAS (G12D) 1-169, N-terminal 6His-tag, C-terminal avi-tag (Xtal BioStructures, Inc.); final assay concentration 10 nM and SOS1 564-1049, N-terminal 229 GST-tag, TEV cleavage site (Viva Biotech Ltd); final assay concentration 5 nM; • KRAS (G12C) 1-169, N-terminal 6His-tag for purification, cleaved off, C-terminal avi-tag, biotinylated, mutations: C51S, C80L, C118S (in house); final assay concentration 7.5 nM and SOS1 564-1049, N-terminal 229 GST-tag, TEV cleavage site (Viva Biotech Ltd); final assay concentration 5 nM; • KRAS (G12V) 1-169, N-terminal 6His-tag for purification, cleaved off, C-terminal avi-tag, biotinylated, TEV cleavage site, mutation: C118S, GDP loaded (in house); final assay concentration 10 nM and SOS1 564-1049, N-terminal 229 GST-tag, TEV cleavage site (Viva Biotech Ltd); final assay concentration 10 nM; • KRAS (G13D) 1-169, N-terminal 6His-tag for purification, cleaved off, C-terminal avi-tag, biotinylated, TEV cleavage site, mutation: C118S, GDP loaded (in house); final assay concentration 10 nM and SOS1 564-1049, N-terminal 229 GST-tag, TEV cleavage site (Viva Biotech Ltd); final assay concentration 10 nM; • KRAS (WT) 1-169, N-terminal 6His-tag for purification, cleaved off, C-terminal avi-tag, biotinylated, TEV cleavage site, mutation: C118S, GDP loaded (in house); final assay concentration 10 nM and SOS1 564-1049, N-terminal 229 GST-tag, TEV cleavage site (Viva Biotech Ltd); final assay concentration 10 nM.
(§4) Test compounds dissolved in DMSO are dispensed onto assay plates (Proxiplate 384 PLUS, white, PerkinElmer; 6008289) using an Access Labcyte Workstation with the Labcyte Echo 55×. For the chosen highest assay concentration of 100 μM, 150 nL of compound solution are transferred from a 10 mM DMSO compound stock solution. A series of eleven fivefold dilutions per compound are transferred to the assay plate, compound dilutions are tested in duplicates. DMSO are added as backfill to a total volume of 150 nL.
(§5) The assays run on a fully automated robotic system in a darkened room below 100 Lux. To 150 nl of compound dilution 10 μl of a mix including KRAS mutant protein, SOS1 (final assay concentrations see above) and GDP nucleotide (Sigma G7127; final assay concentration 10 μM) in assay buffer (1×PBS, 0.1% BSA, 0.05% Tween 20) are added into columns 1-24.
(§6) After 30 minutes incubation time 5 μl of Alpha Screen bead mix in assay buffer are added into columns 1-23. Bead mix consists of AlphaLISA Glutathione Acceptor Beads (PerkinElmer, Cat No AL109) and AlphaScreen Streptavidin Donor Beads (PerkinElmer Cat No 6760002) in assay buffer at a final assay concentration of 10 μg/ml each.
(§7) Plates are kept at room temperature in a darkened incubator. After an additional 60 minutes incubation time the signal is measured in a PerkinElmer Envision HTS Multilabel Reader using the AlphaScreen specs from PerkinElmer.
(§8) Each plate contains up to 16 wells of a negative control depending on the dilution procedure (platewise or serial) (DMSO instead of test compound; with KRAS mutant::SOS1 GDP mix and bead mix; column 23) and 16 wells of a positive control (DMSO instead of test compound; with KRAS mutant::SOS1 GDP mix w/o bead mix; column 24).
(§9) As internal control known inhibitors of KRAS mutant::SOS1 interaction can be measured on each compound plate. […]

[1] = test system: KRAS G12D-dependent Ba/F3 cells; assay: Ba/F3 proliferation assay, KRAS G12D; format: cell-based; details: Mus musculus, BaF3, 72 h, AlamarBlue
Experimental: (§10) Plasmids containing KRASG12 mutants (i.e. […], G12C, G12V) are obtained from GeneScript. To generate KRASG12-dependent Ba/F3 models, Ba/F3 cells are transduced with retroviruses containing vectors that harbor KRASG12 isoforms. Platinum-E cells (Cell Biolabs) are used for retrovirus packaging. Retrovirus is added to Ba/F3 cells. To ensure infection, 4 μg/mL polybrene is added and cells are spinfected. […] Cells with an infection efficiency of 10% to 20% are further cultivated and puromycin selection with 1 μg/mL is initiated. As a control, parental Ba/F3 cells are used to show selection status. Selection is considered successful when parental Ba/F3 cells cultures died. To evaluate the transforming potential of KRASG12 mutations, the growth medium is no longer supplemented with IL-3. Ba/F3 cells harboring the empty vector are used as a control. Approximately ten days before conducting the experiments, puromycin is left out.
(§11) Compounds are added using an Access Labcyte Workstation with a Labcyte Echo 550 or 555 accoustic dispenser. All treatments are performed in technical duplicates. […] AlamarBlue™ (ThermoFisher), a viability stain, is added and fluorescence measured in the PerkinElmer Envision HTS Multilabel Reader. The raw data are imported into and analyzed with the Boehringer Ingelheim proprietary software MegaLab (curve fitting based on the program PRISM, GraphPad Inc.).

KRAS (G12D)::SOS1 = KRAS (G12D)::SOS1 (Homo sapiens (Human), UniProt P01116, G12D); assay: KRAS::SOS1 AlphaScreen binding assay, KRAS G12D
Sequence of KRAS (G12D)::SOS1 (P01116 other isoform, or with tags, fused parts or gaps G12D): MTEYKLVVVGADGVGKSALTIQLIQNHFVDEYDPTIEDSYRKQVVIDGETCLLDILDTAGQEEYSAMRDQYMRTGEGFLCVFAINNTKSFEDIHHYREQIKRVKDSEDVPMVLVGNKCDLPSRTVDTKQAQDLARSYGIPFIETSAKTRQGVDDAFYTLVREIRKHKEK
Excerpt: as §1, §2, §3, §4, §5, §6, §7, §8, §9

[2] = test system: KRAS G12V-dependent Ba/F3 cells; assay: Ba/F3 proliferation assay, KRAS G12V; format: cell-based; details: Mus musculus, BaF3, 72 h, AlamarBlue;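 further: proliferation IC50 in KRAS G12V-dependent Ba/F3 cells read by AlamarBlue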
Experimental: as §10, §11

Sequence of KRAS (G12C)::SOS1 (P01116 other isoform, or with tags, fused parts or gaps G12C/C51S/C80L/C118S): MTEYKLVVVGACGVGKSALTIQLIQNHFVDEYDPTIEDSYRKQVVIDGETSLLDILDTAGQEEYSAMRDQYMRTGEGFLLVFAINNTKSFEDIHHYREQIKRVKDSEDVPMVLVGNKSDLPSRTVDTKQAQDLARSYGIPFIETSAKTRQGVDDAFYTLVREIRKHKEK

SMILES: C[C@H](Oc1cc(-n2ccnc2)nc(-c2noc3c2CCC[C@@]32CCCc3sc(N)c(C#N)c32)n1)[C@@H]1CCCN1C [II-69]
- pIC50 (KRAS (G12C)::SOS1): 8.70
- pIC50 [1]: 7.59
- pIC50 (KRAS (G12D)::SOS1): 8.70
- pIC50 [2]: 8.15

SMILES: C[C@H](Oc1cc(-n2cncn2)nc(-c2noc3c2CCC[C@@]32CCCc3sc(N)c(C#N)c32)n1)[C@@H]1CCCN1C [II-70]
- pIC50 (KRAS (G12C)::SOS1): 8.70
- pIC50 [1]: 7.33
- pIC50 (KRAS (G12D)::SOS1): 8.70
- pIC50 [2]: 8.30

SMILES: C[C@H](Oc1cc(N2CCCC3(COC3)C2)nc(-c2noc3c2CCC[C@@]32CCCc3sc(N)c(C#N)c32)n1)[C@@H]1CCCN1C [II-72]
- pIC50 (KRAS (G12C)::SOS1): 8.70
- pIC50 [1]: 7.41
- pIC50 (KRAS (G12D)::SOS1): 8.70
- pIC50 [2]: 7.68

SMILES: C[C@H](Oc1cc(N2CCCC2=O)nc(-c2noc3c2CCC[C@@]32CCCc3sc(N)c(C#N)c32)n1)[C@@H]1CCCN1C [II-73]
- pIC50 (KRAS (G12C)::SOS1): 8.52
- pIC50 [1]: 7.80
- pIC50 (KRAS (G12D)::SOS1): 8.70
- pIC50 [2]: 7.77

SMILES: C[C@H](Oc1cc(-c2cnn(C)c2)nc(-c2noc3c2CCC[C@@]32CCCc3sc(N)c(C#N)c32)n1)[C@@H]1CCCN1C [II-74]
- pIC50 (KRAS (G12C)::SOS1): 8.52
- pIC50 [1]: 7.09
- pIC50 (KRAS (G12D)::SOS1): 8.22
- pIC50 [2]: 7.96

SMILES: C[C@H](Oc1cc(N2CCN(C)C2=O)nc(-c2noc3c2CCC[C@@]32CCCc3sc(N)c(C#N)c32)n1)[C@@H]1CCCN1C [II-75]
- pIC50 (KRAS (G12C)::SOS1): 8.70
- pIC50 [1]: 7.08
- pIC50 (KRAS (G12D)::SOS1): 9.00
- pIC50 [2]: 7.85

SMILES: C[C@H](Oc1cc(C2CCOCC2)nc(-c2noc3c2CCC[C@@]32CCCc3sc(N)c(C#N)c32)n1)[C@@H]1CCCN1C [II-76]
- pIC50 (KRAS (G12C)::SOS1): 8.70
- pIC50 [1]: 7.52
- pIC50 (KRAS (G12D)::SOS1): 8.52
- pIC50 [2]: 7.72

SMILES: C[C@H](Oc1cc(-c2cncs2)nc(-c2noc3c2CCC[C@@]32CCCc3sc(N)c(C#N)c32)n1)[C@@H]1CCCN1C [II-80]
- pIC50 (KRAS (G12C)::SOS1): 8.15
- pIC50 [1]: 7.39
- pIC50 (KRAS (G12D)::SOS1): 8.15
- pIC50 [2]: 8.00

SMILES: CC(=O)N1CC=C(c2cc(O[C@@H](C)[C@@H]3CCCN3C)nc(-c3noc4c3CCC[C@@]43CCCc4sc(N)c(C#N)c43)n2)CC1 [II-81]
- pIC50 (KRAS (G12C)::SOS1): 8.52
- pIC50 [1]: 6.99
- pIC50 (KRAS (G12D)::SOS1): 8.30
- pIC50 [2]: 7.89

SMILES: C[C@H](Oc1cc(-c2cncnc2)nc(-c2noc3c2CCC[C@@]32CCCc3sc(N)c(C#N)c32)n1)[C@@H]1CCCN1C [II-82]
- pIC50 (KRAS (G12C)::SOS1): 8.52
- pIC50 [1]: 6.70
- pIC50 (KRAS (G12D)::SOS1): 8.22
- pIC50 [2]: 7.36

SMILES: C[C@H](Oc1cc(-c2ccn(C3COC3)n2)nc(-c2noc3c2CCC[C@@]32CCCc3sc(N)c(C#N)c32)n1)[C@@H]1C[C@H](F)CN1C [II-83]
- pIC50 (KRAS (G12C)::SOS1): 8.30
- pIC50 [1]: 7.48
- pIC50 (KRAS (G12D)::SOS1): 7.70
- pIC50 [2]: 7.74

More lines, in order of rising pIC50 (KRAS (G12C)::SOS1), values ahead:

- pIC50 (KRAS (G12C)::SOS1): 8.52
- pIC50 [1]: 7.10
- pIC50 (KRAS (G12D)::SOS1): 8.22
- pIC50 [2]: 7.77
SMILES: C[C@H](Oc1cc(-c2ccn(-c3ccsc3)n2)nc(-c2noc3c2CCC[C@@]32CCCc3sc(N)c(C#N)c32)n1)[C@@H]1CCCN1C [II-84]

- pIC50 (KRAS (G12C)::SOS1): 8.70
- pIC50 [1]: 7.11
- pIC50 (KRAS (G12D)::SOS1): 8.05
- pIC50 [2]: 7.64
SMILES: Cc1cn(C)nc1-c1cc(O[C@@H](C)[C@@H]2CCCN2C)nc(-c2noc3c2CCC[C@@]32CCCc3sc(N)c(C#N)c32)n1 [II-68]

- pIC50 (KRAS (G12C)::SOS1): 8.70
- pIC50 [1]: 7.39
- pIC50 (KRAS (G12D)::SOS1): 8.70
- pIC50 [2]: 8.10
SMILES: C[C@H](Oc1cc(-c2cc[nH]n2)nc(-c2noc3c2CCC[C@@]32CCCc3sc(N)c(C#N)c32)n1)[C@@H]1CCCN1C [II-71]

- pIC50 (KRAS (G12C)::SOS1): 8.70
- pIC50 [1]: 7.55
- pIC50 (KRAS (G12D)::SOS1): 9.00
- pIC50 [2]: 7.96
SMILES: C[C@H](Oc1cc(N2CCOC3(COC3)C2)nc(-c2noc3c2CCC[C@@]32CCCc3sc(N)c(C#N)c32)n1)[C@@H]1CCCN1C [II-77]

- pIC50 (KRAS (G12C)::SOS1): 8.70
- pIC50 [1]: 7.06
- pIC50 (KRAS (G12D)::SOS1): 8.40
- pIC50 [2]: 7.85
SMILES: C[C@H](Oc1cc(-c2ccncc2)nc(-c2noc3c2CCC[C@@]32CCCc3sc(N)c(C#N)c32)n1)[C@@H]1CCCN1C [II-78]

- pIC50 (KRAS (G12C)::SOS1): 8.70
- pIC50 [1]: 7.35
- pIC50 (KRAS (G12D)::SOS1): 8.70
- pIC50 [2]: 7.74
SMILES: Cc1nccn1-c1cc(O[C@@H](C)[C@@H]2CCCN2C)nc(-c2noc3c2CCC[C@@]32CCCc3sc(N)c(C#N)c32)n1 [II-79]
